According to US20250101052A1, “COMPOUND FOR EGFR KINASE INHIBITOR, COMPOSITION, AND USE THEREOF” (INNOVATION INSTITUTE FOR ARTIFICIAL INTELLIGENCE IN …, priority 2021, published 2025):

Experiments:
[1] = tested on: Ba/F3-EGFR^L858R/T790M/C797S nude mouse transplantation tumors; assay: In-vivo efficacy in Ba/F3-EGFR^L858R/T790M/C797S xenograft (CDX); design: species or system BALB/c nude mice; conditions: 13 days
Procedure: In-vivo efficacy: The compounds of the present invention have excellent in-vivo anti-tumor efficacy and are dose-dependent
In-vivo efficacy experiments were conducted on BALB/c nude mice subcutaneously implanted with Ba/F3-EGFR^L858R/T790M/C797S derived xenograft (CDX). BALB/c nude mice, female, 6-8 weeks old, weighing approximately 18-22 grams, were raised in an SPF-level environment with separate ventilation for each cage (5 mice per cage). All cages, beddings, and water were disinfected before use. All the animals were free to access standard certified commercial laboratory diets. A total of 48 mice were purchased from Beijing Vital River for research. Each mouse was subcutaneously implanted with […] in the right axilla for tumor growth. The experiment began when the average tumor volume reached about 70 cubic millimeters. The experimental compounds were for oral administration daily, with compound 24 (45 mg/kg, 75 mg/kg respectively) and compound 51 (100 mg/kg) administered continuously for 13 days.

[2] = tested on: EGFR phosphorylation in Ba/F3-EGFR^L858R/T790M/C797S engineered cells; assay: Cell phosphorylation inhibition effect (pEGFR ELISA); format: cell-based, human; conditions: for inhibitory effect on EGFR phosphorylation (in words): Ba/F3-EGFR^L858R/T790M/C797S engineered cells; for IC50: Mus musculus, Ba/F3 EGFR-L858R, EGF stimulated, ELISA pY1068, read-out: Cellular pEGFR Inhibition IC50 (nM) Ba/F3-EGFR^L858R/T790M/C797S
Procedure: Cell line: BaF3 cells with stable overexpression of EGFR^T790M/C797S/L858R mutant genes, named BaF3-EGFR^T790M/C797S/L858R cells.
a) The medium was preheated in a 37° C. water bath.
b) The cryopreservation tube was taken from the liquid nitrogen tank, quickly placed in a 37° C. water bath, and melted completely within 1 minute.
c) The cell suspension was transferred to a 15 mL centrifuge tube containing a 10 mL medium and centrifuged at 1000 rpm for 4 minutes.
d) The supernatant was discarded, the cells were resuspended in a 1 mL medium and transferred to a […] culture dish containing a 10 mL medium, 20% serum and 50 ng/mL EGF were administered to the first-generation medium, and culture was conducted in a 37° C. and 5% CO2 incubator.
b) The cells in the culture dish were blown evenly with a 5 mL pipette, and 500 μL of the cells were pipetted out to be inoculated into a new […] culture dish and cultured in a 37° C. and 5% CO2 incubator.
a) The compound to be tested (10 mM stock solution) was diluted with 100% DMSO to 1 mM, and diluted with a culture solution in a 24-well plate to prepare of a working solution of 2 μM concentration.
b) The 2 μM working solution was diluted with a triple dilution method to obtain working solutions with approximate concentrations of 2 μM, 600 nM, 200 nM, 60 nM, and 20 nM.
a) The cells at the logarithmic growth phase were centrifuged at 1000 rpm for 4 minutes, resuspended with a medium (containing 10% serum), and counted.
b) The cells were inoculated into a 24-well plate with a cell density of 2 million cells/well, and placed in a 37° C. and 5% CO2 incubator for stabilization overnight.
a) The prepared compound was added to a 96-well plate, with 100 μL per well. The final concentrations were 1 μM, 300 nM, 100 nM, 30 nM, 10 nM, and 0 nM, and the final concentration of DMSO was 0.2%. A medium and 0.2% DMSO served as a blank control.
b) 100 ng/mL EGF was added at 1 hour and 45 minutes of administration. After 15 minutes of EGF treatment, the cells were collected and centrifuged to obtain the supernatant.
(5) Detection of Intracellular pEGFR Content
The content of EGFR and pEGFR in the supernatant was determined using an ELISA kit (Abcam, ab126439-EGFR (pY1068)+total EGFR Human ELISA).
The data was analyzed using GraphPad Prism 8.0 software to obtain a fitted curve of activity of the compounds. The IC50 of the compounds was fitted from nonlinear regression equation.

[3] = Stability testing of liver microsomes, mouse; format: in vitro ADME; conditions: for CLint scaled at 1 µM / half-life at 1 µM: pH 7.41, mouse liver microsomes
Procedure: (§1) 1. 100 mM K-buffer was preheated with 5 mM MgCl2 with a pH value of 7.41.
(§2) 2. Preparation of testing solution
(§3) 0.5 mM solution A: 5 μL of the 10 mM compound stock solution was added for reference to 95 μL of ACN.
(§4) 1.5 μM microsome solution (0.75 mg/mL): 1.5 μL of a 500 μM solution and 18.75 μL of 20 mg/mL liver microsomes were added to 479.75 μL of K/Mg-buffer.
(§5) 3. The K/Mg-buffer NADPH solution (6 mM, 5 mg/mL) was prepared.
(§6) 4. […] of human, monkey, and mouse liver microsomes with a 0.75 mg/mL concentration were added to detection plates at different time points (0, 15, 30, 45, and 60 minutes).
(§7) 5. Pre-incubation was conducted at 37° C. for 5 minutes.
(§8) 6. At 0 min, before 15 μL of the NADPH stock solution (6 mM) was added, 150 μL of ACN containing IS was added.
(§9) NADPH was dissolved in the K/mg buffer to prepare a 6 mm and 5 mg/mL NADPH stock solution.
(§10) 7. At other time points, 15 μL of the NADPH stock solution (6 mM) was added to the well for starting the reaction and timing.
(§11) 8. 150 μL of ACN containing IS was added to the corresponding plate wells at 15 min, 30 min, 45 min, and 60 min, respectively, and the reaction was stopped.
(§12) 9. After quenching, shaking well was conducted for 10 minutes (600 rpm), and centrifugation was conducted at 6000 rpm for 15 minutes.
(§13) 10. 80 μL of the supernatant in each well was transferred to a 96-well sample plate (containing 140 μL of pure water) for LC/MS analysis.

[4] = Stability testing of liver microsomes, monkey; format: in vitro ADME; conditions: for CLint scaled at 1 µM / half-life at 1 µM: pH 7.41, monkey liver microsomes
Procedure: as §1, §2, §3, §4, §5, §6, §7, §8, §9, §10, §11, §12, §13

[5] = Stability testing of liver microsomes, human; format: in vitro ADME; conditions: for CLint scaled at 1 µM / half-life at 1 µM: pH 7.41, human liver microsomes
Procedure: as §1, §2, §3, §4, §5, §6, §7, §8, §9, §10, §11, §12, §13

Which TGI % ([1]; 100 mg/kg/day oral) does the source give for `CCc1cc(Nc2ncc(Cl)c(Nc3ccc(C)c(C)c3P(C)(C)=O)n2)c(OC)cc1N1CCC(N2C[C@H]3CC[C@@H](C2)N3C)CC1` [Compound 51, (6-((5-chloro-2-((5-ethyl-2-methoxy-4-(4-((1R,5S)-8-methyl-3,8-diazabicyclo[3.2.1]octan-3-yl)piperidin-1-yl)phenyl)amino)pyrimidin-4-yl)amino)-2,3-dimethylphenyl)dimethylphosphine oxide] here?
Its TGI % is 83.07%.

And the “inhibitory effect on EGFR phosphorylation (in words)” value [2]?
Its value is “good inhibitory effect”.

And the IC50 [2]?
The IC50 was 132 nM.

For `CCc1cc(Nc2ncc(Cl)c(Nc3ccc(C)c(C)c3P(C)(C)=O)n2)c(OC)cc1N1CCC(N2CCN(C)CC2)CC1` [Comparative Compound A, reference compound], which CLint scaled at 1 µM [3] is on record?
The CLint scaled at 1 µM was 18.2 mL/min/kg.

What about the half-life at 1 µM [3] of the same molecule?
The half-life at 1 µM was 76.1 min.

What about the IC50 [2] of the same molecule?
The IC50 was 405 nM.

And the CLint scaled at 1 µM [4]?
Its CLint scaled at 1 µM is 52 mL/min/kg.

What about the half-life at 1 µM [4] of the same molecule?
Its half-life at 1 µM is 26.7 min.

What about the CLint scaled at 1 µM [5] of the same molecule?
Its CLint scaled at 1 µM is 49.8 mL/min/kg.

And the half-life at 1 µM [5]?
Its half-life at 1 µM is 27.8 min.

What does the source list for `CCc1cc(Nc2ncc(Cl)c(Nc3ccc(C)c(C)c3P(C)(C)=O)n2)c(OC)cc1N1CC2(CCN(C)CC2)C1` [Compound 24, (6-((5-Chloro-2-((5-ethyl-2-methoxy-4-(7-methyl-2,7-diazaspiro[3.5]non-2-yl)phenyl)amino)pyrimidin-4-yl)amino)-2,3-dimethylphenyl)dimethylphosphine oxide]?
stability in liver microsomes (in words) ([3]; mice): good stability; CLint scaled at 1 µM [3]: < 9.6 mL/min/kg; half-life at 1 µM [3]: > 145 min; TGI % ([1]; 45 mg/kg/day oral): 84.74%; TGI % ([1]; 75 mg/kg/day oral): 99.06%; inhibitory effect on EGFR phosphorylation (in words) [2]: good inhibitory effect; IC50 [2]: 150 nM; stability in liver microsomes (in words) ([4]; monkeys): good stability; CLint scaled at 1 µM [4]: 27.7 mL/min/kg; half-life at 1 µM [4]: 50 min; stability in liver microsomes (in words) ([5]; humans): good stability; CLint scaled at 1 µM [5]: < 9.6 mL/min/kg; half-life at 1 µM [5]: > 145 min
